These results are taken from PMC8894670, “An Integrative Multiomics Approach to Characterize Prebiotic Inulin Effects on Faecalibacterium prausnitzii” (Frontiers in Bioengineering and Biotechnology, 2022).

Assay [1] deals with T1, amylosucrase (ams) (Faecalibacterium duncaniae, UniProt C7H8X5).
T1 construct: gene FAEPRAA2165_02769; full-length ORF amplified from genomic DNA, pET28a (BamHI/XhoI sites in primers, tag kept if any), E. coli BL21(DE3), soluble lysate; EC 2.4.1.4, GH13; primers encode N-term MAAKQE, C-term LVKNK
T1 sequence (C7H8X5 1-609): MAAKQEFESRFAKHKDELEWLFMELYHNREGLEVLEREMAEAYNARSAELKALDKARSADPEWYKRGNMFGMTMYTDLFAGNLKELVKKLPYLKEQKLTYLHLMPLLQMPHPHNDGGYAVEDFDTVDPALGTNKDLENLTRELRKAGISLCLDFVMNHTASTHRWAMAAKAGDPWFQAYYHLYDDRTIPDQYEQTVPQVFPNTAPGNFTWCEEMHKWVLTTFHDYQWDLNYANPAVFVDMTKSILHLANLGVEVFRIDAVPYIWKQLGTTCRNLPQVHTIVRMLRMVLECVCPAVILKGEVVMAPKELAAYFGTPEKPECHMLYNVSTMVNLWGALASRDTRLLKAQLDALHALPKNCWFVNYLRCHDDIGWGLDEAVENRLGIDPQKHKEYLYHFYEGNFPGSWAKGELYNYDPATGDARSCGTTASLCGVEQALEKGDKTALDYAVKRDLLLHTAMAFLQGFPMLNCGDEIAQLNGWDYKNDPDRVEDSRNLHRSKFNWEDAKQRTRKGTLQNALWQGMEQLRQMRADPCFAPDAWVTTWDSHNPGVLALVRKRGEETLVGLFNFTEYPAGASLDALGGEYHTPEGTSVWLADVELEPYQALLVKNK
Put plainly: MALDI-TOF-MS of products, lysate of overexpressing E. coli. It is filed as biochemical. To be noted: 10 mg/ml sucrose, 50 mM sodium phosphate, 37°C, 10 min; 36 ng soluble lysate protein.

In assay [2] the target is T2, β-fructosidase (bfrA) (Faecalibacterium duncaniae, UniProt C7H8W7).
T2 construct: gene FAEPRAA2165_02761; full-length ORF amplified from genomic DNA, pET28a (BamHI/XhoI sites in primers, tag kept if any), E. coli BL21(DE3), soluble lysate; EC 3.2.1.26, GH32; primers encode N-term MNDLTL, C-term FELNL
T2 sequence (C7H8W7 1-491): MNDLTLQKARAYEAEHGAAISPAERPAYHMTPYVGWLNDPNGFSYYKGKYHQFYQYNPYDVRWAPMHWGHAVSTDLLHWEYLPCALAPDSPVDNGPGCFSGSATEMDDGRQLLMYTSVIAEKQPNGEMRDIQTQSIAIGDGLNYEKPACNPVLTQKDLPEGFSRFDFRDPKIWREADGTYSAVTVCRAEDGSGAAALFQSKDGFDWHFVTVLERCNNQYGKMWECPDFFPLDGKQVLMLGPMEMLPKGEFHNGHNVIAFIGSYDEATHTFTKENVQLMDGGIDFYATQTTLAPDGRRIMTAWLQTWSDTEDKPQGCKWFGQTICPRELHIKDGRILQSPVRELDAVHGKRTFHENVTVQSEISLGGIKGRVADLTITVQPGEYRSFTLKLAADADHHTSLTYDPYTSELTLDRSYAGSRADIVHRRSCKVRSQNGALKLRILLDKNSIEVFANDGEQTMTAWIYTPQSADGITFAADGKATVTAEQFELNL
The description is as above. The assay is classed as biochemical. To be noted: 10 mg/ml sucrose, 50 mM sodium phosphate, 37°C, 10 min; 36 ng soluble lysate protein.

`OC[C@H]1O[C@@](CO)(O[C@H]2O[C@H](CO)[C@@H](O)[C@H](O)[C@H]2O)[C@@H](O)[C@@H]1O` [sucrose]: the “MALDI-TOF-MS of products, lysate of overexpressing E. coli” value in assay [1] is “sucrose was degraded by the pET28a-ams and pET28a-bfrA recombinant strains”; in assay [2], “sucrose was degraded by the pET28a-ams and pET28a-bfrA recombinant strains”.
